Laboratory results: article PMC4309560, “Creating Novel Activated Factor XI Inhibitors through Fragment Based Lead Generation and Structure Aided Drug Design” (PLoS ONE, 2015)
Read-outs that look alike come from different tables or passages of the source. Values belong to the compound of their own block, whether it stands above or below them.

Key:
Human FXIa = target: T1, Human FXIa (Homo sapiens, UniProt P03951); assay: FXIa enzymatic chromogenic assay; assay type: biochemical
T1 construct: purchased HTI, Essex Junction, USA
Experimental: (§1) Enzymatic assay. […] Selected compounds were also screened against other serine proteases to evaluate their selectivity profiles.
(§2) Once the compounds were synthesized and characterized, enzymatic assays were performed to evaluate the inhibitory activity of the resulting compounds against FXIa and other serine proteases. […] IC50 values for the compounds were determined using equation: Q= V/(1+([I]/IC50)^n) Q denotes the assay readout, V denotes the uninhibited velocity of the enzyme, [I] denotes the inhibitor concentration, n denotes the slope and IC50 is the inhibitor concentration at V/2.
(§3) [S] denotes the substrate concentration.

FXIa CD [1] = target: T2, FXIa CD (Homo sapiens, UniProt P03951, C500S/K455A/S452A/T493A); assay: Ligand detected 1D NMR fragment screen; assay type: binding; details: compounds screened at 100 μM, 5 μM FXIa CD
T2 construct: purification of the catalytic domain (residues 370–607) was carried out as described by Jin et al; made in house
Experimental: Ligand detected 1D NMR. Compounds were screened at 100 μM in mixtures of six. Weakly binding fragments were identified from intensity changes through measurements on three samples viz. […] The signal from a compound binding with low affinity to FXIa CD decreased upon addition of protein and regained upon addition of a high affinity reference compound. Comparison with reference spectra of individual compounds enabled identification of the binding fragment in a mixture. […] As a positive control, the S1 binding ligand para-methyl-benzamidine (pMeBza), compound 3, was used, and in Fig. 3 the doublet at 7.66 ppm is shown.
NMR samples were prepared in aqueous buffer containing 50 mM deuterated TRIS, pH 7.4, 3 mM NaN3, and 10% D2O. FXIa CD stock solution was buffer exchanged and concentrated to approximately 100 μM (2.7 mg/mL) (UV absorption ε280 = 60390 cm^-1) using 10 kDa cut-off Millipore filter centrifugation tubes. Control experiments with pMeBza and compound 2 were done on all protein preparations (Fig. 3). […]
NMR data were collected at 20 °C on a Bruker Avance III 600 MHz NMR spectrometer equipped with a cryo probe head. 1D ^1H T 1ρ NMR spectra were recorded with 256 scans, 3.2 s interscan delay, 180 ms spin lock time and 64 kHz spin lock field. […]

FXIa = system: FXIa; set-up: method as in PMID 17597608; details: irreversible inhibition; cited from earlier work
rat models = system: rat models; set-up: method as in PMID 17597608; details: cited from earlier work
FXIa CD [2] = target: T2, FXIa CD; assay: FXIa surface plasmon resonance (Biacore) inhibition in solution assay; assay type: binding
From the text: SPR. […] The SPR data were then used to rank and select compounds for X-ray crystallography experiments. The SPR method was based on an inhibition in solution assay in which compound 4, immobilized on the biosensor surface, served as a probe for the FXIa catalytic site. […] Fig. 4 illustrates the design of compound 4 based on the crystal structure of FXIa in complex with compound 1. Since any ligand that binds to the S1 pocket competes with compound 4 for binding to FXIa CD, it is possible to derive the K D for that ligand [60]. The initial binding rate of the protein to compound 4, K on, was used to determine the percentage of free protein in solution which changed by varying the concentration of the competing ligand. The free protein concentration was plotted against the logarithm of the ligand concentration and a sigmoidal dose–response curve-fit model was applied to determine the K D-value.
The tethered free amine ligand 4 was covalently linked to the dextran layer on the CM5 sensor chip (GE Healthcare/Biacore) using the Amine Coupling Kit (Healthcare/Biacore) and performed according to the manufacturer’s recommendations. Carboxyl groups on the dextran layer were activated by injecting a 1:1 mixture of 0.5 M N-ethyl-N’ (3-dimethylaminopropyl)-carbodiimide and 0.5 M N-hydroxysuccinimide at 10 μL/min for 7 min. The activated carboxyl groups on the control channels were blocked by injecting a 1 M ethanolamine solution for 7 min at 10 μL/min. […] The remaining activated groups were blocked with 1 M ethanolamine. Compounds were tested in a concentration response curve. The compounds were serially diluted 1:3 in DMSO to form a 10-point concentration response curve with 5 mM for the highest concentration. The FXIa CD was added to the plate at a final concentration of 50 nM and the mixture was incubated for 15 min at RT. The plate was then sealed and placed in the Biacore 3000 instrument. Samples were injected at 20 μL/min for 2 min. […] The value used to calculate percent inhibition of binding was the slope of the response measured 8 s after the start of the injection. […]

Human PKK = target: T3, Human PKK (Homo sapiens, UniProt P03952); assay: PKK (plasma kallikrein) chromogenic assay; assay type: biochemical; details: for Ki: converted from IC50
T3 construct: trypsin, plasma kallikrein (PKK), FIXa; purchased Calbiochem, Darmstadt, Germany
Experimental: as §1, §2, §3
PKK. Human PKK was from Calbiochem, Darmstadt, Germany.

[3] = Precipitation in FXIa potency measurement; assay type: physicochemical
[4] = Chromatographic determination of lipophilicity; assay type: physicochemical; details: reversed-phase UPLC, Waters BEH C18 stationary phase, pH 7.4; measured by liquid chromatography, pH7.4
From the text: The chromatographic data was obtained utilizing a Waters Aquity UPLC chromatographic system running a gradient from 5–95% acetonitrile at pH7.4. The stationary phase was a Waters BEH C18 2.1x50 mm. Standardized retention data were obtained by normalization against a set of compounds with precisely determined (octanol/water) logD-values. Lipophilicity values for samples were derived from a corresponding calibration curve.

Caco2 cells = assay: Caco2 permeability; assay type: in vitro ADME; details: measured at pH 6.5
Experimental: A monolayer of Caco2 cells, cultured on semi-permeable polycarbonate surfaces, was used to study the permeability in the apical to basolateral direction. The process was atomized by a robotic Tecan EVO platform (Männerdorf, Switzerland) and 24-transwell plates from Costar (Cambridge, MA, USA). HBSS buffer pH 7.4 was dispensed to the basal side of the monolayer. […] Samples for quantitative analysis by LC/MS/MS were withdrawn before the addition of the test substrate and at 45 and 120 min post addition of the test substrate. During incubation the transwell plates were placed in a shaking incubator at 37°C between sampling. The peak areas were exported to Excel where Papp-values and recoveries were calculated. Twenty-two reference compounds with known human oral bioavailability were used to establish a correlation curve with Papp versus the fraction of the oral dose absorbed (fa).

Caco2 efflux = assay type: in vitro ADME; details: human, Caco-2; Caco2, Papp B to A / Papp A to B, pH 7.4 at side A
From the text: Efflux was studied in the same Caco2 cells with the modification that HBSS buffer pH 7.4 was used on both sides of the monolayer. The permeability was studied in the apical to basolateral direction (Papp AB) as well as in the basolateral to apical direction and (Papp BA). Efflux ratios were derived from the following equation: Papp BA/Papp AB.

rat hepatocytes = assay: Rat hepatocyte metabolic stability assay; assay type: in vitro ADME
Experimental: Rat hepatocyte metabolic stability was determined in accordance with the method described by Jacobson et al.. Cryo preserved hepatocytes at a concentration of 10^6 viable cells/mL were used. After thawing, hepatocytes were incubated for 10 min to warm to 37°C and test compounds, dissolved in acetonitrile, were added to give a final concentration of 1 μM. At 0.5, 5, 15, 30, 45, 60, 80, 100 and 120 min, the incubation system was mixed and 20 μL aliquots were transferred at each time point to wells in a separate plate filled with 80 μL acetonitrile to stop the reaction. The quenching plate was then vortexed followed by centrifugation, and supernatants were analyzed by LC/MS/MS. Peak areas were determined from extracted ion chromatograms, and the in vitro intrinsic clearance (in vitro CLint, in μL/min/10^6 cells) of parent compound was calculated from the slope in the regression analysis of the natural logarithm of parent concentration vs. time curve.

In vivo rat PK = details: female, Sprague Dawley, plasma
Experimental: Two days prior to dosing, female Sprague Dawley rats were prepared by cannulation of the left carotid artery for blood sampling and by cannulation of the right jugular vein for intravenous administration. The catheters were filled with heparin (100 IU/mL), exteriorized at the nape of the neck and sealed. The surgery was performed under isoflurane (Forene®, Abbott) anesthesia. After surgery the rats were housed individually and had free access to food and water. About 16 h prior to dosing the animals were deprived of food, and fasted until 4 h after dosing. The rats had free access to drinking water during the experiment. On the experiment day, the test item formulation was administered orally by gavage or intravenously in the jugular vein. At pre-defined time points, blood samples of about 0.150 mL were withdrawn from the carotid artery up to 24h after dosing. A total of 10 samples were withdrawn. The blood samples were collected in heparinized plastic tubes and centrifuged, within 30 min, for five min at 10 000 g and +4°C. The plasma was transferred to a 96 well plate and stored at -20°C until analysis by LC/MS/MS. The studies were approved by the Göteborg Animal Research Ethical Board.

T2 sequence (P03951 388-625 S452A/K455A/T493A/C500S): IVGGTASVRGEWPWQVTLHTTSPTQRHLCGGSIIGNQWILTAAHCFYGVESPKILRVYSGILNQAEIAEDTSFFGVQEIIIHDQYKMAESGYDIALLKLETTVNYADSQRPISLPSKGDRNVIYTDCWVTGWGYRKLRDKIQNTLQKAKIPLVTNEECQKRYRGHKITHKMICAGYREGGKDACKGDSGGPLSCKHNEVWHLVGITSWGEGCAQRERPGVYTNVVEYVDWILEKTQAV
T3 sequence (P03952 391-638 limits assumed): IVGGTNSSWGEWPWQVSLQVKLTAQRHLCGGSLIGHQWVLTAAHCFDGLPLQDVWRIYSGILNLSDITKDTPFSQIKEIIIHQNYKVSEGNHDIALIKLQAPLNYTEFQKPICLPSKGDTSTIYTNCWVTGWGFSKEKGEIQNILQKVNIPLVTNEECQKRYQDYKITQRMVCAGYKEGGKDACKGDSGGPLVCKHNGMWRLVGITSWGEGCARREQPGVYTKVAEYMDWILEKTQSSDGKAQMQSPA
T3 sequence (P03952 20-390 partner limits assumed): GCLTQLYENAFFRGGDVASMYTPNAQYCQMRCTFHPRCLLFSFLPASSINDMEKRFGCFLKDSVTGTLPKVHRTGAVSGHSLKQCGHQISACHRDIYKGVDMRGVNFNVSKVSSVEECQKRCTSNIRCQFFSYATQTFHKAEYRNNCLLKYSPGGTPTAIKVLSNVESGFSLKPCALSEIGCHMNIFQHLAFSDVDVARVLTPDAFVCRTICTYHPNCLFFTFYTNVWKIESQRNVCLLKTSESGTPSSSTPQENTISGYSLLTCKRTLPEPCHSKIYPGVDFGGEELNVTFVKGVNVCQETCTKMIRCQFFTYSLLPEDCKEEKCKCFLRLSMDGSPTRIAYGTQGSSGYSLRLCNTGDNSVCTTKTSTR
T1 sequence (P03951 388-625): as the sequence (P03951 388-625 S452A/K455A/T493A/C500S) above, with A65S, A68K, A106T, S113C counted along it
T1 sequence (P03951 19-387): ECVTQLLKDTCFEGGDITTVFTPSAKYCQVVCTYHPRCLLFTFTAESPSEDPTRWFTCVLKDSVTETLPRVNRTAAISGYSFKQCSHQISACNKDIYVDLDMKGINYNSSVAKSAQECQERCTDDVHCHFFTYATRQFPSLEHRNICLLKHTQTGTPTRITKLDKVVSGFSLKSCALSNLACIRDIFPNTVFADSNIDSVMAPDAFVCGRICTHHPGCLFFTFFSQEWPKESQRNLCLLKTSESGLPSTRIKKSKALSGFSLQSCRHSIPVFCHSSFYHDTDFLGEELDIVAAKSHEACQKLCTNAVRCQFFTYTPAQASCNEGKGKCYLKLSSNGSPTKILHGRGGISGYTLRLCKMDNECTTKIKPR

Compound: 6-methyl-3,4-dihydro-1H-quinolin-2-one [Compound 17]
FXIa % inh. at 1 mM (Human FXIa; 1 mM): 20% | hit in NMR screen (FXIa CD [1]): not identified as a hit in NMR

Compound: CC(C)(C)NC(=O)N1CCN(C(=O)N2C(=O)[C@H](CCCN=C(N)N)[C@H]2C(=O)O)CC1 [BMS-262084]
IC50 (FXIa): 0.0028 µM | in vivo antithrombotic efficacy (rat models): demonstrated in vivo antithrombotic efficacy

IC50 (Human FXIa): 0.24 µM | Ki (Human FXIa): 0.12 µM | Kd (FXIa CD [2]): 0.39 µM
Compound: N=C(N)c1ccc2cc(C(=O)Nc3cccc(OCCOCCN)c3)cc(Nc3ncccn3)c2c1 [Compound 4, N-(3-(2-(2-aminoethoxy)ethoxy)phenyl)-6-carbamimidoyl-4-(pyrimidin-2-ylamino)-2-naphthamide, reference compound]

Compound: Nc1ccc2c(CNC(=O)[C@H](Cc3ccccc3)NC(=O)c3ccc4[nH]c(=O)cc(O)c4c3)cccc2n1 [Compound 8, (S)-N-(1-{(2-Aminoquinolin-5-yl)methylamino}-1-oxo-3-phenylpropan-2-yl)-4-hydroxy-2-oxo-1,2-dihydroquinoline-6-carboxamide]
IC50 (Human FXIa): 0.12 µM | Ki (Human FXIa): 0.06 µM | IC50 (Human PKK): 7.2 µM | selectivity vs. PKK (Human PKK; FXIa over PKK, for 13 based on Ki values): about 25 fold | Ki (Human PKK): 1.5 µM | pKa (Experimental pKa): 7.1

Compound: Cc1cc(=O)[nH]c2ccc(Cl)cc12 [Compound 12]
inhibition at 111 µM (Human FXIa; read-out: FXIa % inh. at 111 μM): 43% | Precipitates at higher concentration than [3]: > 111 µM

ligand efficiency (LE) (Human FXIa; FXIa): 0.15 | -ΔG fragment (printed with reversed sign in the ΔG link equation) (Human FXIa; FXIa, subtracted term, so ΔG itself is negative): 3.9 kcal/mol | Kd (FXIa CD [2]; read-out: FXIa KD): 1400 µM
Compound: CNC(=O)[C@H](Cc1ccccc1)NC(=O)c1ccc2[nH]c(=O)cc(O)c2c1 [Compound 15, (S)-4-Hydroxy-N-(1-(methylamino)-1-oxo-3-phenylpropan-2-yl)-2-oxo-1,2-dihydroquinoline-6-carboxamide]

Compound: CN(Cc1cc(=O)[nH]c2ccc(Cl)cc12)C(=O)[C@H](Cc1ccccc1)N(C)C(=O)c1ccc2[nH]c(=O)cc(O)c2c1 [Compound 26, (S)-N-(1-[{(6-Chloro-2-oxo-1,2-dihydroquinolin-4-yl)methyl}(methyl)amino]-1-oxo-3-phenylpropan-2-yl)-4-hydroxy-N-methyl-2-oxo-1,2-dihydroquinoline-6-carboxamide]
IC50 (Human FXIa): 1.7 µM | Ki (Human FXIa): 0.85 µM | chromatographic logD [4]: 1.4 | Caco2 A to B permeability (Caco2 cells): 0.16 1·10^-6 cm/s | efflux ratio (Caco2 efflux): > 3.8 | Rat CLint (rat hepatocytes): 23 μL/min/ 1·10^6 cells

Compound: Cc1c(-c2ccccc2)n[nH]c1C(=O)N(C)Cc1cc(=O)[nH]c2ccc(Cl)cc12 [Compound 28, N-{(6-Chloro-2-oxo-1,2-dihydroquinolin-4-yl)methyl}-N,4-dimethyl-3-phenyl-1H-pyrazole-5-carboxamide]
IC50 (Human FXIa): 0.82 µM | Ki (Human FXIa): 0.41 µM | IC50 (Human PKK): 8.4 µM | Ki (Human PKK): 1.7 µM | chromatographic logD [4]: 2.7 | Caco2 A to B permeability (Caco2 cells): 19 1·10^-6 cm/s | efflux ratio (Caco2 efflux): 1.6 | Rat CLint (rat hepatocytes): 21 μL/min/ 1·10^6 cells | clearance (In vivo rat PK; intravenous, rat in vivo, read-out: Rat CL (in vivo clearance)): 18 mL/min/kg | bioavailability (In vivo rat PK; rat, oral): 27%
